Inhibition data for 13 molecules are collected here from patent publication US12479821B2 (MBD CO., LTD., priority 2019, dated 2025).

Read-outs that look alike come from different tables or passages of the source.

This experiment has as its target T1, CYP4A (Homo sapiens, UniProt Q02928).
T1 construct: host or cells: bactosome, i.e. bacterial membrane preparation (own knowledge of the term)
T1 sequence (Q02928 5-519): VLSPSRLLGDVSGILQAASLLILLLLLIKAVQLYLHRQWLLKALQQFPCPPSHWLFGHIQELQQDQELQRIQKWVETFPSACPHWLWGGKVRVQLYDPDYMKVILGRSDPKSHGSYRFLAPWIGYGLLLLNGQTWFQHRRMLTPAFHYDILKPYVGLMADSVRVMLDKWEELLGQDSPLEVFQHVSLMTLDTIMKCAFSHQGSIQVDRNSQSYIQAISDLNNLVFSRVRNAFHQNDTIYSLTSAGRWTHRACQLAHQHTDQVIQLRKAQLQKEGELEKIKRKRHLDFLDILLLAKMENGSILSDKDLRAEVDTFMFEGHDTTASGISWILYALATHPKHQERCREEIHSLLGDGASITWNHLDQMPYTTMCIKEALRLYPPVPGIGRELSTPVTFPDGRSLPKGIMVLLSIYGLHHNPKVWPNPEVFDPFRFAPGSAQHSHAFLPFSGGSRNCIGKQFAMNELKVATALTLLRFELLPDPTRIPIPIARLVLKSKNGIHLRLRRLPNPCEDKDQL
Kind of experiment: CYP4A enzyme assay (Luciferin-ME luminescence, CYP4A bactosome). To be noted: compound concentration 5 μM. It is filed as biochemical. The procedure, abridged: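 CYP4A bactosome preincubated 15 min at room temperature with compound (5 μM) in 100 mM KPO4, 0.1% BSA, 1 mM DTT. Luciferin-ME (5 mM) plus NADPH regeneration system added, 30 min at room temperature, then detection reagent for 15 min. Inhibition derived from luminescence versus controls.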

[1] abbreviates: '50%-75%', read-out: % Inhibition 50%-75%.
The mark [2] stands for this setting: 75% or more, read-out: % Inhibition 75% or more.
Setting [3] is: 25%-50%, read-out: % Inhibition 25%-50%.

Consider `O=C(C1CCCN(S(=O)(=O)c2ccc(Br)cc2)C1)N1CCN(c2ccnc3ccccc23)CC1` (stereo not shown) [Formula 85, (1-(4-bromophenylsulfonyl)piperidin-3-yl) (4-(quinolin-4-yl)piperazin-1-yl) methanone], for which the inhibition at 5 µM under setting [1] fell in the range of 50 to 75%.
For `COc1cccc(S(=O)(=O)N2CCCC(C(=O)N3CCN(c4ccnc5ccccc45)CC3)C2)c1` (stereo not shown) [Formula 86, (1-(3-methoxyphenylsulfonyl)piperidin-3-yl) (4-(quinolin-4-yl)piperazin-1-yl) methanone], the inhibition at 5 µM under setting [2] was no less than 75%.
Take `COc1ccc2c(N3CCN(C(=O)C4CCCN(S(=O)(=O)c5ccc(NC(C)=O)cc5)C4)CC3)ccnc2c1` (stereo not shown) [Formula 87, N-(4-(3-(1-(7-methoxyquinolin-4-yl)piperazine-4-carbonyl)piperidin-1-ylsulfonyl)phenyl) acetamide]: the inhibition at 5 µM under setting [1] stood at 0%.
Take `COc1ccc2c(N3CCN(C(=O)C4CCCN(S(=O)(=O)c5ccc(C)cc5)C4)CC3)ccnc2c1` (stereo not shown) [Formula 88, (4-(7-methoxyquinolin-4-yl)piperazin-1-yl) (1-tosylpiperidin-3-yl) methanone]: the inhibition at 5 µM under setting [3] amounted to 0%.
Take `COc1ccc2c(N3CCN(C(=O)C4CCCN(S(=O)(=O)c5ccc(F)cc5)C4)CC3)ccnc2c1` (stereo not shown) [Formula 89, (1-(4-fluorophenylsulfonyl)piperidin-3-yl) (4-(7-methoxyquinolin-4-yl)piperazin-1-yl) methanone]: under setting [1], the inhibition at 5 µM fell in the range of 50 to 75%.
As to `COc1ccc2c(N3CCN(C(=O)C4CCCN(S(=O)(=O)c5ccc(N(C)C)cc5)C4)CC3)ccnc2c1` (stereo not shown) [Formula 90, (1-(4-(dimethylamino)phenylsulfonyl)piperidin-3-yl) (4-(7-methoxyquinolin-4-yl)piperazin-1-yl) methanone], the inhibition at 5 µM under setting [1] was in the range of 50 to 75%.
Still for that read-out and setting: the value for `COc1ccc2c(N3CCN(C(=O)C4CCCN(S(=O)(=O)c5ccc(O)cc5)C4)CC3)ccnc2c1` (stereo not shown) [Formula 91, (1-(4-hydroxyphenylsulfonyl)piperidin-3-yl) (4-(7-methoxyquinolin-4-yl)piperazin-1-yl)methanone] was 50 to 75%; that for `O=C(C1CCCN(S(=O)(=O)c2cccc(O)c2)C1)N1CCN(c2ccnc3cc(Cl)ccc23)CC1` (stereo not shown) [Formula 92, (4-(7-chloroquinolin-4-yl)piperazin-1-yl) (1-(3-hydroxyphenylsulfonyl)piperidin-3-yl) methanone] was 50 to 75%; that for `Cc1cc(N2CCN(C(=O)C3CCCN(S(=O)(=O)c4cccc(O)c4)C3)CC2)c2ccccc2n1` (stereo not shown) [Formula 93, (1-(3-hydroxyphenylsulfonyl)piperidin-3-yl) (4-(2-methylquinolin-4-yl)piperazin-1-yl) methanone] was 50 to 75%.
`O=C(C1CCCN(S(=O)(=O)c2cccc(O)c2)C1)N1CCN(c2ccnc3cc(F)ccc23)CC1` (stereo not shown) [Formula 94, (4-(7-fluoroquinolin-4-yl)piperazin-1-yl) (1-(3-hydroxyphenylsulfonyl)piperidin-3-yl) methanone]: the inhibition at 5 µM under setting [2] is no less than 75%.
In the case of `O=C(C1CCCN(S(=O)(=O)c2cccc(O)c2)C1)N1CCN(c2ccnc3ccccc23)CC1` (stereo not shown) [Formula 95, (1-(3-hydroxyphenylsulfonyl)piperidin-3-yl) (4-(quinolin-4-yl)piperazin-1-yl) methanone], the inhibition at 5 µM under setting [2] is no less than 75%.
`Cc1cc(N2CCN(C(=O)C3CCCN(S(=O)(=O)c4ccc(N)cc4)C3)CC2)c2ccccc2n1` (stereo not shown) [Formula 96, (1-(4-aminophenylsulfonyl)piperidin-3-yl) (4-(2-methylquinolin-4-yl)piperazin-1-yl) methanone]: the inhibition at 5 µM under setting [3] was in the range of 25 to 50%.
Take `Nc1ccc(S(=O)(=O)N2CCCC(C(=O)N3CCN(c4ccnc5ccccc45)CC3)C2)cc1` (stereo not shown) [Formula 97, (1-(4-aminophenylsulfonyl)piperidin-3-yl) (4-(quinolin-4-yl)piperazin-1-yl) methanone]: the inhibition at 5 µM under setting [1] turned out to be 0%.
